Data reported in patent publication US7592363B2, “Indazoles” (Wyeth, priority 2004, dated 2009).

melting point | Compound
103 °C | COC(=O)C[C@@H]1CCCN(c2ccc(-c3c4cccc(C(F)(F)F)c4nn3Cc3c(F)cc(F)cc3F)cc2)C1
112 to 114 °C | Fc1ccc(-c2c3cccc(N4CCCC4)c3nn2Cc2ccc(F)cc2F)cc1 [Example 426, 2-(2,4-DIFLUOROBENZYL)-3-(4-FLUOROPHENYL)-7-PYRROLIDIN-1-YL-2H-INDAZOLE]
138 to 139 °C | CCC(CC)n1nc2c(C(F)(F)F)cccc2c1-c1ccc(OC)cc1OC [Example 110, 3-(2,4-DIMETHOXYPHENYL)-2-(1-ETHYLPROPYL)-7-(TRIFLUOROMETHYL)-2H-INDAZOLE]
103 °C | COC(=O)C[C@H]1CCCN(c2ccc(-c3c4cccc(C(F)(F)F)c4nn3Cc3c(F)cc(F)cc3F)cc2)C1
111 to 112 °C | COc1ccc(-c2c3cccc(C(F)(F)F)c3nn2CC(C)C)c(OC)c1 [Example 106, 3-(2,4-DIMETHOXYPHENYL)-2-ISOBUTYL-7-(TRIFLUOROMETHYL)-2H-INDAZOLE]
125 °C | Fc1ccc(-c2c3cccc(C(F)(F)F)c3nn2Cc2c(F)cc(F)cc2F)cc1 [Example 139, 3-(4-FLUOROPHENYL)-2-(2,4,6-TRIFLUOROBENZYL)-7-(TRIFLUOROMETHYL)-2H-INDAZOLE]
103 °C | CC1CCCN(c2ccc(-c3c4cccc(C(F)(F)F)c4nn3Cc3c(F)cc(F)cc3F)cc2)C1 (stereo not drawn)
156 to 157 °C | COc1ccc(-c2c3cccc(C(F)(F)F)c3nn2CC2CCCCC2)c(OC)c1 [Example 107, 2-(CYCLOHEXYLMETHYL)-3-(2,4-DIMETHOXYPHENYL)-7-(TRIFLUOROMETHYL)-2H-INDAZOLE]
51 to 52 °C | COc1ccc(-c2c3cccc(C(F)(F)F)c3nn2C2CCC2)c(OC)c1 [Example 109, 2-CYCLOBUTYL-3-(2,4-DIMETHOXYPHENYL)-7-(TRIFLUOROMETHYL)-2H-INDAZOLE]
